Source: ChEMBL document CHEMBL2429804, “Examination of the phenolic profile and antioxidant activity of the leaves of the Australian native plant Smilax glyciphylla” (J Nat Prod, 2013)

Legend:
[1] = Antioxidant activity assessed as trolox equivalent of ferric ion reducing activity using fe3+-TPTZ after 4 mins by FRAP assay; type: functional
[2] = Antioxidant activity assessed as trolox equivalent of DPPH scavenging activity after 4 mins by spectrophotometry; type: functional

Structure (SMILES) | Activity [1] [equiv] | Activity [2] [equiv]
O=c1c(O)c(-c2ccc(O)cc2)oc2cc(O)cc(O)c12 | 2.36 | 2.4
C[C@@H]1O[C@@H](Oc2cc(O)cc(O)c2C(=O)CCc2ccc(O)c(O)c2)[C@H](O)[C@H](O)[C@H]1O | 0.72 | 0.48
O=c1c(O[C@@H]2O[C@H](CO)[C@@H](O)[C@H](O)[C@H]2O)c(-c2ccc(O)c(O)c2)oc2cc(O)cc(O)c12 | 0.56 | 0.56
O=C(CCc1ccc(O)c(O)c1)c1c(O)cc(O)cc1O | 0.64 | 0.88
Oc1cc(O)c2c(c1)OC(c1ccc(O)c(O)c1)C(O)C2 (stereo not given) | 0.56 | 0.44
